From patent US9060971B2, “Combination pharmaceutical agents as inhibitors of HCV replication” (Enanta Pharmaceuticals, Inc., priority 2010, dated 2015)
pEC50: −log10 of the molar value.

Experiments:
HCV 1b genotype replicon = assay: HCV replicon drug screening assay (quantitative RT-PCR or luciferase), genotype 1b; assay type: cell-based; conditions: Hepatitis C virus; HCV 1b genotype replicon; quantitative RT-PCR or luciferase assay; read-out: Genotype-1b replicon EC50 Range
Summary of the method: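 Huh-derived subgenomic genotype 1b replicon lines (SGR 11-7, neo; Huh-luc/neo-ET, firefly luciferase with adaptive mutations) grown at 37 °C. EC50 from HCV RNA by TaqMan one-step qRT-PCR normalised to GAPDH RNA. Cytotoxicity measured in parallel by MTS.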

[1] = test system: "Huh-luc/neo-ET" HCV replicon; assay: In vitro synergy assay, two drug combinations, luciferase, Bliss additivity; assay type: cell-based; conditions: 72 h
Text: The coding sequence of the published HCV replicon was synthesized and subsequently assembled in a modified plasmid pBR322 (Promega, Madison, Wis.) using standard molecular biology techniques. One replicon cell line (“SGR 11-7”) stably expresses HCV replicon RNA which consists of (i) the HCV 5′UTR fused to the first 12 amino acids of the capsid protein, (ii) the neomycin phosphotransferase gene (neo), (iii) the IRES from encephalomyocarditis virus (EMCV), and (iv) HCV NS2 to NS5B genes and the HCV 3′UTR. Another replicon cell line (“Huh-luc/neo-ET”) described by Vrolijk et. al. (Vrolijk et. al. (2003) Journal of Virological Methods 110:201-209, expressly incorporated by reference in its entirety) stably expresses HCV replicon RNA which consists of (i) the HCV 5′UTR fused to the first 12 amino acids of the capsid protein, (ii) the firefly luciferase reporter gene, (iii) the ubiquitin gene, (iv) the neomycin phosphotransferase gene (neo), (v) the IRES from encephalomyocarditis virus (EMCV), and (vi) HCV NS3 to NS5B genes that harbor cell culture adaptive mutations (E1202G, T12801, K1846T) and the HCV 3′UTR.
Since clinical drug resistance often develops in viral infections following single agent therapies, there is a need to assess the additive, antagonistic, or synergistic properties of combination therapies. We used the HCV replicon system to assess the potential use of our NS5A inhibitors in combination therapies with Interferon alpha, cyclosporine analogs and inhibitors targeting other HCV proteins. The acute effects of combinations of drugs were studied in the “Huh-luc/neo-ET” replicon with each chemical agent titrated in an X or Y direction in a 6 point two-fold dilution curve centered around the EC50 of each drug. Briefly, replicon cells were seeded at 7,000 cells per well in 90 ul DMEM (without phenol red, Invitrogen Cat. #31053-036) per well with 10% FCS, 1% non-essential amino acids, 1% of Glutamax and 1% of 100× penicillin/streptomycin and incubated overnight at 37° C., 5% C02, 100% relative humidity. 16-20 h after seeding cells, test compounds previously solubilized and titrated in dimethyl sulfoxide (“DMSO”) from each X plate and Y plate were diluted 1:100 in DMEM (without phenol red, Invitrogen Cat. #31053-036) with 10% FCS, 1% non-essential amino acids, 1% of Glutamax and 1% of 100× penicillin/streptomycin and added directly to the 96-well plate containing cells and growth medium at a 1:10 dilution for a final dilution of compound and DMSO of 1:1000 ([…] final concentration). Drug treated cells were incubated at 37° C., 5% C02, 100% relative humidity for 72 hours before performing a luciferase assay using 100 ul per well BriteLite Plus (Perkin Elmer) according to the manufacturer's instructions. Data analysis utilizes the method published by Prichard and Shipman (Antiviral Research, 1990. 14:181-205). Using this method, the combination data were analyzed for antagonistic, additive, or synergistic combination effects across the entire combination surface created by the diluted compounds in combination.
We used the HCV replicon system to assess the potential use of our NS5A inhibitor in combination therapies with Interferon alpha, cyclosporine analogs or inhibitors targeting other HCV proteins. Several HCV antivirals, including protease inhibitors (ITMN-191, SCH503034, VX-950), a nucleoside analog (such as those described in WO01/90121(A2), U.S. Pat. No. 6,348,587B1, WO01/60315 or WO01/32153), a nonnucleoside NS5B polymerase inhibitor (GSK625433), a cyclosporine analog, as well as Interferon alpha, are tested in combination with Compounds 90, 93 or 95 herein, inhibitors of HCV NS5A. Antivirals were tested at five concentrations each, diluted in DMSO by 2-fold dilutions. The antivirals were tested as monotherapies and in combination with Compounds 90, 93 or 95 (described herein) at various concentration ratios. […]

[2] = in combination with Boceprevir (SCH503034)
[3] = in combination with Cyclosporine analog
[4] = in combination with Interferon-alpha
[5] = in combination with Telaprevir (VX-950)

SMILES: COC(=O)N[C@H](C(=O)N1CCC[C@H]1c1ncc(-c2ccc(C#Cc3ccc4nc([C@@H]5CCCN5C(=O)[C@@H](NC(=O)OC)C(C)C)[nH]c4c3)cc2)[nH]1)C(C)C [Compound 90]
- pEC50 (HCV 1b genotype replicon): > 9.00
- Bliss Volume (%) at 95% Confidence Intervals, Antagonism [1, 2]: 0%
- Bliss Volume (%) at 95% Confidence Intervals, Synergy [1, 2]: 48%
- Result (combination effect) [1, 2]: Synergistic
- Synergy Score [1, 2]: 48%
- Bliss Volume (%) at 95% Confidence Intervals, Antagonism [1, 3]: 0%
- Bliss Volume (%) at 95% Confidence Intervals, Synergy [1, 3]: 0%
- Result (combination effect) [1, 3]: Additive
- Synergy Score [1, 3]: 0%
- Bliss Volume (%) at 95% Confidence Intervals, Antagonism ([1]; in combination with GSK625433): −1%
- Bliss Volume (%) at 95% Confidence Intervals, Synergy ([1]; in combination with GSK625433): 12%
- Result (combination effect) ([1]; in combination with GSK625433): Additive
- Synergy Score ([1]; in combination with GSK625433): 11%
- Bliss Volume (%) at 95% Confidence Intervals, Antagonism ([1]; in combination with ITMN-191): −9%
- Bliss Volume (%) at 95% Confidence Intervals, Synergy ([1]; in combination with ITMN-191): 2%
- Result (combination effect) ([1]; in combination with ITMN-191): Additive
- Synergy Score ([1]; in combination with ITMN-191): −7%
- Bliss Volume (%) at 95% Confidence Intervals, Antagonism [1, 4]: −14%
- Bliss Volume (%) at 95% Confidence Intervals, Synergy [1, 4]: 6%
- Result (combination effect) [1, 4]: Additive
- Synergy Score [1, 4]: −8%
- Bliss Volume (%) at 95% Confidence Intervals, Antagonism ([1]; in combination with R7128): 0%
- Bliss Volume (%) at 95% Confidence Intervals, Synergy ([1]; in combination with R7128): 34%
- Result (combination effect) ([1]; in combination with R7128): Synergistic
- Synergy Score ([1]; in combination with R7128): 34%
- Bliss Volume (%) at 95% Confidence Intervals, Antagonism [1, 5]: −1%
- Bliss Volume (%) at 95% Confidence Intervals, Synergy [1, 5]: 0%
- Result (combination effect) [1, 5]: Additive
- Synergy Score [1, 5]: −1%

SMILES: COC(=O)N[C@H](C(=O)N1CCC[C@H]1c1nc(-c2ccc(C#Cc3ccc4[nH]c([C@@H]5CC6(CC6)CN5C(=O)[C@@H](NC(=O)OC)C(C)C)nc4c3)cc2)c[nH]1)C(C)C [Compound 93]
- pEC50 (HCV 1b genotype replicon): > 9.00
- Bliss Volume (%) at 95% Confidence Intervals, Antagonism [1, 2]: 0%
- Bliss Volume (%) at 95% Confidence Intervals, Synergy [1, 2]: 63%
- Result (combination effect) [1, 2]: Synergistic
- Synergy Score [1, 2]: 63%
- Bliss Volume (%) at 95% Confidence Intervals, Antagonism ([1]; in combination with GSK625433): 0%
- Bliss Volume (%) at 95% Confidence Intervals, Synergy ([1]; in combination with GSK625433): 113%
- Result (combination effect) ([1]; in combination with GSK625433): Synergistic
- Synergy Score ([1]; in combination with GSK625433): 113%
- Bliss Volume (%) at 95% Confidence Intervals, Antagonism ([1]; in combination with ITMN-191): 0%
- Bliss Volume (%) at 95% Confidence Intervals, Synergy ([1]; in combination with ITMN-191): 14%
- Result (combination effect) ([1]; in combination with ITMN-191): Additive
- Synergy Score ([1]; in combination with ITMN-191): 14%
- Bliss Volume (%) at 95% Confidence Intervals, Antagonism [1, 4]: 0%
- Bliss Volume (%) at 95% Confidence Intervals, Synergy [1, 4]: 38%
- Result (combination effect) [1, 4]: Synergistic
- Synergy Score [1, 4]: 38%
- Bliss Volume (%) at 95% Confidence Intervals, Antagonism ([1]; in combination with R7128): 0%
- Bliss Volume (%) at 95% Confidence Intervals, Synergy ([1]; in combination with R7128): 14%
- Result (combination effect) ([1]; in combination with R7128): Additive
- Synergy Score ([1]; in combination with R7128): 14%
- Bliss Volume (%) at 95% Confidence Intervals, Antagonism [1, 5]: 0%
- Bliss Volume (%) at 95% Confidence Intervals, Synergy [1, 5]: 7%
- Result (combination effect) [1, 5]: Additive
- Synergy Score [1, 5]: 7%

SMILES: COC(=O)N[C@H](C(=O)N1CC2(CC2)C[C@H]1c1nc(-c2ccc(C#Cc3ccc4[nH]c([C@@H]5CC6(CC6)CN5C(=O)[C@@H](NC(=O)OC)C(C)C)nc4c3)cc2)c[nH]1)C(C)C [Compound 95]
- pEC50 (HCV 1b genotype replicon): > 9.00
- Bliss Volume (%) at 95% Confidence Intervals, Antagonism [1, 2]: 0%
- Bliss Volume (%) at 95% Confidence Intervals, Synergy [1, 2]: 44%
- Result (combination effect) [1, 2]: Synergistic
- Synergy Score [1, 2]: 44%
- Bliss Volume (%) at 95% Confidence Intervals, Antagonism ([1]; in combination with GSK625433): 0%
- Bliss Volume (%) at 95% Confidence Intervals, Synergy ([1]; in combination with GSK625433): 0%
- Result (combination effect) ([1]; in combination with GSK625433): Additive
- Synergy Score ([1]; in combination with GSK625433): 0%
- Bliss Volume (%) at 95% Confidence Intervals, Antagonism ([1]; in combination with ITMN-191): 0%
- Bliss Volume (%) at 95% Confidence Intervals, Synergy ([1]; in combination with ITMN-191): 5%
- Result (combination effect) ([1]; in combination with ITMN-191): Additive
- Synergy Score ([1]; in combination with ITMN-191): 5%
- Bliss Volume (%) at 95% Confidence Intervals, Antagonism [1, 4]: −2%
- Bliss Volume (%) at 95% Confidence Intervals, Synergy [1, 4]: 0%
- Result (combination effect) [1, 4]: Additive
- Synergy Score [1, 4]: −2%
- Bliss Volume (%) at 95% Confidence Intervals, Antagonism ([1]; in combination with R7128): 0%
- Bliss Volume (%) at 95% Confidence Intervals, Synergy ([1]; in combination with R7128): 28%
- Result (combination effect) ([1]; in combination with R7128): Synergistic
- Synergy Score ([1]; in combination with R7128): 28%
- Bliss Volume (%) at 95% Confidence Intervals, Antagonism [1, 5]: 0%
- Bliss Volume (%) at 95% Confidence Intervals, Synergy [1, 5]: 5%
- Result (combination effect) [1, 5]: Additive
- Synergy Score [1, 5]: 5%

SMILES: COC(=O)N[C@H](C(=O)N1CCC[C@H]1c1nc(-c2ccc(C#Cc3ccc4[nH]c([C@@H]5[C@H]6CC[C@H](C6)N5C(=O)[C@@H](NC(=O)OC)C(C)C)nc4c3)cc2)c[nH]1)C(C)C [Compound 123]
- pEC50 (HCV 1b genotype replicon): > 9.00

SMILES: COC(=O)N[C@H](C(=O)N1CCC[C@H]1c1nc(-c2ccc(-c3ccc(-c4ccc5[nH]c([C@@H]6[C@H]7CC[C@H](C7)N6C(=O)[C@@H](NC(=O)OC)C(C)C)nc5c4)cc3)cc2)c[nH]1)C(C)C [Compound 124]
- pEC50 (HCV 1b genotype replicon): > 9.00

SMILES: COC(=O)N[C@H](C(=O)N1CCC[C@H]1c1ncc(-c2ccc(C#Cc3ccc4nc([C@@H]5C6CCC(CC6)N5C(=O)[C@@H](NC(=O)OC)C(C)C)[nH]c4c3)cc2)[nH]1)C(C)C [Compound 125]
- pEC50 (HCV 1b genotype replicon): > 9.00

SMILES: COC(=O)N[C@H](C(=O)N1[C@@H]2CC[C@@H](C2)[C@H]1c1nc(-c2ccc(C#Cc3ccc4[nH]c([C@@H]5[C@H]6CC[C@H](C6)N5C(=O)[C@@H](NC(=O)OC)C(C)C)nc4c3)cc2)c[nH]1)C(C)C [Compound 126]
- pEC50 (HCV 1b genotype replicon): > 9.00

SMILES: COC(=O)N[C@H](C(=O)N1CCC[C@H]1c1nc(-c2ccc3cc(-c4ccc5[nH]c([C@@H]6[C@H]7CC[C@H](C7)N6C(=O)[C@@H](NC(=O)OC)C(C)C)nc5c4)ccc3c2)c[nH]1)C(C)C [Compound 129]
- pEC50 (HCV 1b genotype replicon): > 9.00

SMILES: CON=C1C[C@@H](c2nc3cc(C#Cc4ccc(-c5c[nH]c([C@@H]6CCCN6C(=O)[C@@H](NC(=O)OC)C(C)C)n5)cc4)ccc3[nH]2)N(C(=O)[C@@H](NC(=O)OC)C(C)C)C1 [Compound 131]
- pEC50 (HCV 1b genotype replicon): > 9.00
